Source: patent US8598183B2, “Solid state forms of a potent HCV inhibitor” (Boehringer Ingelheim International GmbH, priority 2010, dated 2013)
Marks after values point to notes of the source that are not given here.

Assays:
Format in all cases: physicochemical
[1] = Solubility of Compound (1) in physiological pH range; thermodynamic solubility
Method: Doses of Compound (1) up to 400 to 600 mg per dose may be required to be delivered to obtain exposures necessary for sufficient efficacy in vivo. Based on thermodynamic solubility of Compound (1), solubility of 0.005-0.01 mg/ml is estimated for Compound (1) sodium salt.

[2] = Powder dissolution / solubility of Compound (1) sodium salt in water at different concentrations; conditions: for % dissolved / CMC value: water; for CMC value: estimated
Method: Based on thermodynamic solubility of Compound (1), solubility of 0.005-0.01 mg/ml is estimated for Compound (1) sodium salt. […] This unique behavior of high solubility at high drug concentrations is most likely attributable to tendency of the drug substance to self-micellize. A CMC value of 41.4 mM (corresponding to 28 mg/mL) is estimated.

[3] = Powder dissolution of triturated mixtures in capsules in 500 mL pH 6.8 buffer; conditions: capsule
Text: One class of solubilizer excipients, basifiers, act by increasing the microenvironment pH and thereby increasing the local solubility of the drug (for a drug containing an acid moiety). Another class of solubilizer excipients, surfactants, also act by increasing the local solubility of the drug. […] For example, an enhancement in dissolution was obtained when surfactants, for example, sodium lauryl sulfate or Vitamin E TPGS, were used in combination with basifiers, for example, L-arginine, meglumine or L-lysine. […] For example, only 1% drug release was obtained when Compound (1) sodium salt crystalline was present. The % drug release was 54% at 60 minutes in the presence of 100 mg Arginine alone and 59% in the presence of Sodium lauryl sulfate alone (Table 2). However, in presence of 100 mg of Arginine along with 100 mg of Sodium lauryl sulfate, the % drug release increased to 93% at 60 minutes (Table 3) indicating enhancement in dissolution when both surfactant and basifier were used in combination.

Structure (SMILES): Cn1c(C2(NC(=O)c3ccc4c(C5CCCC5)c(-c5ncc(Br)cn5)n(C)c4c3)CCC2)nc2ccc(/C=C/C(=O)[O-])cc21.[Na+] [Compound (1) sodium salt]
- solubility estimated based on thermodynamic solubility of Compound (1) [1]: 5 to 10 µg/mL
- dissolution in water ([2]; concentrations exceeding the CMC value): dissolves completely
- % dissolved ([2]; conc 0.1 mg/ml): 13.4%
- % dissolved ([2]; conc 0.3 mg/ml): 15.0%
- % dissolved ([2]; conc 1.0 mg/ml): 15.4%
- % dissolved ([2]; conc 3.0 mg/ml): 46.6%
- % dissolved ([2]; conc 10.0 mg/ml): 90.0%
- % dissolved ([2]; conc 30.0 mg/ml): 100.0%
- % dissolved ([2]; conc 100.0 mg/ml): 100.0%
- % dissolved ([2]; conc 200.0 mg/ml): 100.0%
- % dissolved ([2]; concentrations ≦1 mg/mL): 15%
- CMC value [2]: 41.4 mM
- CMC value ([2]; corresponding to the mM value): 28 mg/mL
- % Release, average (range) ([3]; 200 mg drug + Arginine 100 mg, 90 (infinity), n = 4): 54 (40-58) %
- % Release, average (range) ([3]; 200 mg drug + Arginine 100 mg, 15 min, n = 4): 43 (27-53)* %
- % Release, average (range) ([3]; 200 mg drug + Arginine 100 mg, 30 min, n = 4): 54 (39-62) %
- % Release, average (range) ([3]; 200 mg drug + Arginine 100 mg, 60 min, n = 4, listed as Compound (1) Na Salt): 54 (38-60) %
- % Release, average (range) ([3]; 200 mg drug + Arginine 100 mg, 60 min, n = 4, listed as Compound (1) sodium salt crystalline): 54%
- % Release, Average of n = 2 (range) ([3]; 200 mg drug + Arginine + SDS (40 mg + 20 mg), 15 min): 74 (70-78) %
- % Release, Average of n = 2 (range) ([3]; 200 mg drug + Arginine + SDS (40 mg + 20 mg), 30 min): 77 (74-80) %
- % Release, Average of n = 2 (range) ([3]; 200 mg drug + Arginine + SDS (40 mg + 20 mg), 60 min): 76 (74-78) %
- % Release, Average of n = 2 (range) ([3]; 200 mg drug + Arginine + SDS (40 mg + 20 mg), 90 min): 72 (70-74) %
- % Release, Average of n = 2 (range) ([3]; 200 mg drug + Arginine + SDS (100 mg + 100 mg), 15 min): 92 (91-93) %
- % Release, Average of n = 2 (range) ([3]; 200 mg drug + Arginine + SDS (100 mg + 100 mg), 30 min): 93 (93-94) %
- % Release, Average of n = 2 (range) ([3]; 200 mg drug + Arginine + SDS (100 mg + 100 mg), 60 min, listed as Compound (1) Na Salt): 93 (93-93) %
- % Release, Average of n = 2 (range) ([3]; 200 mg drug + Arginine + SDS (100 mg + 100 mg), 60 min, listed as Compound (1) sodium salt crystalline): 93%
- % Release, Average of n = 2 (range) ([3]; 200 mg drug + Arginine + SDS (100 mg + 100 mg), 90 min): 91 (89-92) %
- % Release, Average of n = 2 (range) ([3]; 200 mg drug + Arginine + VitE TPGS (40 mg + 20 mg), 15 min): 62 (61-63) %
- % Release, Average of n = 2 (range) ([3]; 200 mg drug + Arginine + VitE TPGS (40 mg + 20 mg), 30 min): 64 (62-67) %
- % Release, Average of n = 2 (range) ([3]; 200 mg drug + Arginine + VitE TPGS (40 mg + 20 mg), 60 min): 65 (63-68) %
- % Release, Average of n = 2 (range) ([3]; 200 mg drug + Arginine + VitE TPGS (40 mg + 20 mg), 90 min): 63 (60-66) %
- % Release, Average of n = 2 (range) ([3]; 200 mg drug + Arginine + VitE TPGS (100 mg + 100 mg), 15 min): 76 (74-78) %
- % Release, Average of n = 2 (range) ([3]; 200 mg drug + Arginine + VitE TPGS (100 mg + 100 mg), 30 min): 77 (76-78) %
- % Release, Average of n = 2 (range) ([3]; 200 mg drug + Arginine + VitE TPGS (100 mg + 100 mg), 60 min): 78 (78-78) %
- % Release, Average of n = 2 (range) ([3]; 200 mg drug + Arginine + VitE TPGS (100 mg + 100 mg), 90 min): 76 (75-76) %
- % Release, average (range) ([3]; 200 mg drug + Lysine 100 mg, 90 (infinity), n = 4): 44 (33-46) %
- % Release, average (range) ([3]; 200 mg drug + Lysine 100 mg, 15 min, n = 4): 18 (9-27) %
- % Release, average (range) ([3]; 200 mg drug + Lysine 100 mg, 60 min, n = 4): 47 (33-54) %
- % Release, Average of n = 2 (range) ([3]; 200 mg drug + Lysine + SDS (40 mg + 20 mg), 15 min): 75 (74-77) %
- % Release, Average of n = 2 (range) ([3]; 200 mg drug + Lysine + SDS (40 mg + 20 mg), 30 min): 77 (76-78) %
- % Release, Average of n = 2 (range) ([3]; 200 mg drug + Lysine + SDS (40 mg + 20 mg), 60 min): 75 (74-75) %
- % Release, Average of n = 2 (range) ([3]; 200 mg drug + Lysine + SDS (40 mg + 20 mg), 90 min): 72 (70-74) %
- % Release, Average of n = 2 (range) ([3]; 200 mg drug + Lysine + SDS (100 mg + 100 mg), 15 min): 40 (37-42) %
- % Release, Average of n = 2 (range) ([3]; 200 mg drug + Lysine + SDS (100 mg + 100 mg), 30 min): 74 (67-82) %
- % Release, Average of n = 2 (range) ([3]; 200 mg drug + Lysine + SDS (100 mg + 100 mg), 60 min): 85 (85-86) %
- % Release, Average of n = 2 (range) ([3]; 200 mg drug + Lysine + SDS (100 mg + 100 mg), 90 min): 85 (84-85) %
- % Release, Average of n = 2 (range) ([3]; 200 mg drug + Lysine + VitE TPGS (40 mg + 20 mg), 15 min): 37 (33-41) %
- % Release, Average of n = 2 (range) ([3]; 200 mg drug + Lysine + VitE TPGS (40 mg + 20 mg), 30 min): 69 (69-70) %
- % Release, Average of n = 2 (range) ([3]; 200 mg drug + Lysine + VitE TPGS (40 mg + 20 mg), 60 min): 71 (70-72) %
